Measurements reported in paper PMC8698454, “Anti-Colonization Effect of Au Surfaces with Self-Assembled Molecular Monolayers Functionalized with Antimicrobial Peptides on S. epidermidis” (Antibiotics, 2021).
Values after ≈ are worked out from the molar mass of the structure shown. Where two headings read alike, the source gives them in different places. Where a SMILES comes first, the peptide text is derived from it. [ ]: non-standard residue; d: D form. Bip = N[C@@H](Cc1ccc(-c2ccccc2)cc1)C(=O)O; Lys(N3) = [N-]=[N+]=NCCCC[C@H](N)C(=O)O

Key:
Assay type in all cases: cell-based
[1] = system: Escherichia coli ATCC 25922; settings: for Antimicrobial Activity (MIC) E. coli: ATCC 25922; for MIC E. coli ATCC 25922: Table S3
Procedure: (§1) The minimal inhibitory concentration (MIC) of peptides 1a, 1b, 2a, and 2b were determined by broth microdilution according to the Clinical Laboratory Standard Institute (CLSI) method […]-A9. The MICs of the peptides 1c, 1d, 2c, and 2d were determined by broth dilution according to the European Committee for Antimicrobial Susceptibility Testing (EUCAST). Final concentrations of 0.5-256 μg/mL were tested against a panel of reference bacteria-S. aureus (ATCC 9144), S. epidermidis (1457), E. coli (ATCC 25922), and P. aeruginosa (ATCC 27853). Each strain was tested in biological triplicate. The MIC values were defined as the lowest concentration of the peptides resulting in no visual growth.

[2] = system: Staphylococcus aureus ATCC 9144; settings: for Antimicrobial Activity (MIC) S. aureus: ATCC 9144; for MIC S. aureus ATCC 9144: Table S3
Procedure: as §1

[3] = system: Staphylococcus epidermidis 1457; settings: for Antimicrobial Activity (MIC) S. epidermidis: 1457; for MIC S. epidermidis 1457: Table S3
Procedure: as §1

[4] = system: Pseudomonas aeruginosa ATCC 27853; settings: for Antimicrobial Activity (MIC) P. aeruginosa: ATCC 27853; for MIC P. aeruginosa ATCC 27853: Table S3
Procedure: as §1

[5] = technical replicate 1, biological replicate BR1
[6] = technical replicate 1, biological replicate BR2
[7] = technical replicate 1, biological replicate BR3
[8] = technical replicate 2, biological replicate BR1
[9] = technical replicate 2, biological replicate BR2
[10] = technical replicate 2, biological replicate BR3
[11] = technical replicate 3, biological replicate BR1
[12] = technical replicate 3, biological replicate BR2
[13] = technical replicate 3, biological replicate BR3

SMILES	Antimicrobial Activity (MIC) E. coli [1] [µg/mL]	MIC E. coli ATCC 25922 [1, 5] [µg/mL]	MIC E. coli ATCC 25922 [1, 6] [µg/mL]	MIC E. coli ATCC 25922 [1, 7] [µg/mL]	MIC E. coli ATCC 25922 [1, 8] [µg/mL]	MIC E. coli ATCC 25922 [1, 9] [µg/mL]	MIC E. coli ATCC 25922 [1, 10] [µg/mL]	MIC E. coli ATCC 25922 [1, 11] [µg/mL]	MIC E. coli ATCC 25922 [1, 12] [µg/mL]	MIC E. coli ATCC 25922 [1, 13] [µg/mL]	Antimicrobial Activity (MIC) S. aureus [2] [µg/mL]	MIC S. aureus ATCC 9144 [2, 5] [µg/mL]	MIC S. aureus ATCC 9144 [2, 6] [µg/mL]	MIC S. aureus ATCC 9144 [2, 7] [µg/mL]	MIC S. aureus ATCC 9144 [2, 8] [µg/mL]	MIC S. aureus ATCC 9144 [2, 9] [µg/mL]	MIC S. aureus ATCC 9144 [2, 10] [µg/mL]	MIC S. aureus ATCC 9144 [2, 11] [µg/mL]	MIC S. aureus ATCC 9144 [2, 12] [µg/mL]	MIC S. aureus ATCC 9144 [2, 13] [µg/mL]	other results
[N-]=[N+]=NCCCC[C@H](NC(=O)[C@H](Cc1ccccc1)NC(=O)[C@H](CCCNC(=N)N)NC(=O)[C@H](Cc1ccc(-c2ccccc2)cc1)NC(=O)[C@H](Cc1ccc(-c2ccccc2)cc1)NC(=O)[C@@H](N)CCCNC(=N)N)C(N)=O [2c] (H-R[Bip][Bip]RF[Lys(N3)]-NH2)	8	8 (≈ 7.43 µM)	8 (≈ 7.43 µM)	16 (≈ 14.9 µM)	8 (≈ 7.43 µM)	8 (≈ 7.43 µM)	16 (≈ 14.9 µM)	8 (≈ 7.43 µM)	16 (≈ 14.9 µM)	8 (≈ 7.43 µM)	8	8 (≈ 7.43 µM)	4 (≈ 3.71 µM)	8 (≈ 7.43 µM)	8 (≈ 7.43 µM)	8 (≈ 7.43 µM)	8 (≈ 7.43 µM)	8 (≈ 7.43 µM)	4 (≈ 3.71 µM)	8 (≈ 7.43 µM)	Antimicrobial Activity (MIC) S. epidermidis [3]: 4 µg/mL; MIC S. epidermidis 1457 [3, 5]: 8 µg/mL (≈ 7.43 µM); MIC S. epidermidis 1457 [3, 6]: 4 µg/mL (≈ 3.71 µM); MIC S. epidermidis 1457 [3, 7]: 8 µg/mL (≈ 7.43 µM); MIC S. epidermidis 1457 [3, 8]: 4 µg/mL (≈ 3.71 µM); MIC S. epidermidis 1457 [3, 9]: 4 µg/mL (≈ 3.71 µM); MIC S. epidermidis 1457 [3, 10]: 8 µg/mL (≈ 7.43 µM); MIC S. epidermidis 1457 [3, 11]: 4 µg/mL (≈ 3.71 µM); MIC S. epidermidis 1457 [3, 12]: 4 µg/mL (≈ 3.71 µM); MIC S. epidermidis 1457 [3, 13]: 8 µg/mL (≈ 7.43 µM); Antimicrobial Activity (MIC) P. aeruginosa [4]: 16 µg/mL; MIC P. aeruginosa ATCC 27853 [4, 5]: 8 µg/mL (≈ 7.43 µM); MIC P. aeruginosa ATCC 27853 [4, 6]: 8 µg/mL (≈ 7.43 µM); MIC P. aeruginosa ATCC 27853 [4, 7]: 16 µg/mL (≈ 14.9 µM); MIC P. aeruginosa ATCC 27853 [4, 8]: 16 µg/mL (≈ 14.9 µM); MIC P. aeruginosa ATCC 27853 [4, 9]: 16 µg/mL (≈ 14.9 µM); MIC P. aeruginosa ATCC 27853 [4, 10]: 16 µg/mL (≈ 14.9 µM); MIC P. aeruginosa ATCC 27853 [4, 11]: 16 µg/mL (≈ 14.9 µM); MIC P. aeruginosa ATCC 27853 [4, 12]: 8 µg/mL (≈ 7.43 µM); MIC P. aeruginosa ATCC 27853 [4, 13]: 16 µg/mL (≈ 14.9 µM)
[N-]=[N+]=NCCCC[C@@H]1NC(=O)[C@H](Cc2ccccc2)NC(=O)[C@H](CCCNC(=N)N)NC(=O)[C@H](Cc2ccc(-c3ccccc3)cc2)NC(=O)[C@H](Cc2ccc(-c3ccccc3)cc2)NC(=O)[C@H](CCCNC(=N)N)NC1=O [2d] (cyclo(R[Bip][Bip]RF[Lys(N3)]))	64	64 (≈ 60.4 µM)	64 (≈ 60.4 µM)	64 (≈ 60.4 µM)	64 (≈ 60.4 µM)	64 (≈ 60.4 µM)	32 (≈ 30.2 µM)	64 (≈ 60.4 µM)	64 (≈ 60.4 µM)	32 (≈ 30.2 µM)	4	8 (≈ 7.55 µM)	4 (≈ 3.77 µM)	4 (≈ 3.77 µM)	4 (≈ 3.77 µM)	4 (≈ 3.77 µM)	8 (≈ 7.55 µM)	4 (≈ 3.77 µM)	4 (≈ 3.77 µM)	4 (≈ 3.77 µM)	Antimicrobial Activity (MIC) S. epidermidis [3]: 2 µg/mL; MIC S. epidermidis 1457 [3, 5]: 4 µg/mL (≈ 3.77 µM); MIC S. epidermidis 1457 [3, 6]: 2 µg/mL (≈ 1.89 µM); MIC S. epidermidis 1457 [3, 7]: 2 µg/mL (≈ 1.89 µM); MIC S. epidermidis 1457 [3, 8]: 2 µg/mL (≈ 1.89 µM); MIC S. epidermidis 1457 [3, 9]: 2 µg/mL (≈ 1.89 µM); MIC S. epidermidis 1457 [3, 10]: 2 µg/mL (≈ 1.89 µM); MIC S. epidermidis 1457 [3, 11]: 2 µg/mL (≈ 1.89 µM); MIC S. epidermidis 1457 [3, 12]: 2 µg/mL (≈ 1.89 µM); MIC S. epidermidis 1457 [3, 13]: 2 µg/mL (≈ 1.89 µM); Antimicrobial Activity (MIC) P. aeruginosa [4]: 256 µg/mL; MIC P. aeruginosa ATCC 27853 [4, 5]: 256 µg/mL (≈ 241 µM); MIC P. aeruginosa ATCC 27853 [4, 6]: 256 µg/mL (≈ 241 µM); MIC P. aeruginosa ATCC 27853 [4, 7]: 256 µg/mL (≈ 241 µM); MIC P. aeruginosa ATCC 27853 [4, 8]: 256 µg/mL (≈ 241 µM); MIC P. aeruginosa ATCC 27853 [4, 9]: 256 µg/mL (≈ 241 µM); MIC P. aeruginosa ATCC 27853 [4, 10]: 256 µg/mL (≈ 241 µM); MIC P. aeruginosa ATCC 27853 [4, 11]: 256 µg/mL (≈ 241 µM); MIC P. aeruginosa ATCC 27853 [4, 12]: 256 µg/mL (≈ 241 µM); MIC P. aeruginosa ATCC 27853 [4, 13]: 256 µg/mL (≈ 241 µM)
